Experimental data reported in patent publication US20040147545A1, “Derivatives of oxazolidinones as antibacterial agents” (priority 2001, published 2004).
In brackets after ≈: the same amount, converted by molar mass.

How the values were obtained:
Assay type in all cases: cell-based
H. influenzae = assay: Antibacterial activity, microdilution in culture broth (NCCLS), strain I; settings: Haemophilus influenzae, G (−) hospital strain, inoculum 5×10^5 UFC/ml
Text: (§1) The antibacterial activity of the new synthesised compounds on the various strains of the bacterial species was implemented using the technique of microdilution in culture broth according to the regulations of the National Committee for Clinical Laboratory Standards (NCCLS), (NCCLS. 1993. Methods for dilution antimicrobial susceptibility tests for bacteria that grow aerobically. Approved standard M7-A3. NCCLS, Vilanova. Pa., and NCCLS. 1993. Methods for dilution antimicrobial susceptibility tests for anaerobic bacteria […]. Approved standard M1-A3. NCCLS, Vilanova. Pa.).
(§2) The inoculum used was 5×10^5 UFC/ml following dilution of the cultures overnight in the exponential phase of bacterial growth.
(§3) The MIC expressed in mg/l was defined as the minimum concentration of antibiotic which inhibited any visible growth.
(§4) Linezolid was included as comparative compound.
(§5) The compounds were tested on the strains of G(+) and G(−) bacteria set out in Table 1, in which: […]

S. agalactiae = assay: Antibacterial activity, microdilution in culture broth (NCCLS), strain D; settings: Streptococcus agalactiae, G (+) hospital strain, inoculum 5×10^5 UFC/ml
Text: as §1, §2, §3, §4, §5

M. Catarrahalis = assay: Antibacterial activity, microdilution in culture broth (NCCLS), strain J; settings: G (−) hospital strain, inoculum 5×10^5 UFC/ml
Text: as §1, §2, §3, §4, §5

S. pyogenes = assay: Antibacterial activity, microdilution in culture broth (NCCLS), strain F; settings: Streptococcus pyogenes, G (+) hospital strain, inoculum 5×10^5 UFC/ml
Text: as §1, §2, §3, §5

B. fragilis = assay: Antibacterial activity, microdilution in culture broth (NCCLS), strain G (anaerobic); settings: Bacteroides fragilis, anaerobic hospital strain, inoculum 5×10^5 UFC/ml
Text: as §1, §2, §3, §4, §5

[1] = system: E. faecalis resistant to vancomycin; assay: Antibacterial activity, microdilution in culture broth (NCCLS), strain B; settings: Enterococcus faecalis, G (+) hospital strain, inoculum 5×10^5 UFC/ml
Text: as §1, §2, §3, §4, §5

E. coli = assay: Antibacterial activity, microdilution in culture broth (NCCLS), strain H; settings: Escherichia coli, G (−) hospital strain, inoculum 5×10^5 UFC/ml
Text: as §1, §2, §3, §4, §5

[2] = system: S. pneumoniae resistant to penicillin; assay: Antibacterial activity, microdilution in culture broth (NCCLS), strain C; settings: Streptococcus pneumoniae, G (+) hospital strain, inoculum 5×10^5 UFC/ml
Text: as §1, §2, §3, §4, §5

[3] = system: S. aureus resistant to meticillin; assay: Antibacterial activity, microdilution in culture broth (NCCLS), strain A; settings: Staphylococcus aureus, G (+) hospital strain, inoculum 5×10^5 UFC/ml
Text: as §1, §2, §3, §4, §5

S. epidermidis = assay: Antibacterial activity, microdilution in culture broth (NCCLS), strain E; settings: Staphylococcus epidermidis, G (+) hospital strain, inoculum 5×10^5 UFC/ml
Text: as §1, §2, §3, §4, §5

MIC (H. influenzae)	MIC (S. agalactiae)	MIC (M. Catarrahalis)	MIC (S. pyogenes)	MIC (B. fragilis)	MIC [1]	MIC (E. coli)	MIC [2]	MIC [3]	MIC (S. epidermidis)	SMILES
4 µg/mL (≈ 6.81 µM)	< 0.125 µg/mL	0.5 µg/mL (≈ 0.851 µM)	< 0.125 µg/mL	0.5 µg/mL (≈ 0.851 µM)	< 0.125 µg/mL	64 µg/mL (≈ 109 µM)	< 0.125 µg/mL	< 0.125 µg/mL	< 0.125 µg/mL	CCn1cc(C(=O)O)c(=O)c2cc(F)c(N3CCN(c4ccc(N5C[C@H](CNC(C)=O)OC5=O)cc4F)CC3)c(F)c21 [EXAMP. 3, 7-(4-{4-[5-(S)-(acetylamino-methyl)-2-oxo-oxazolidin-3-yl]-2-fluoro-phenyl}-piperazin-1-yl)-1-ethyl-6,8-difluoro-4-oxo-1,4-dihydro-quinoline-3-carboxylic Acid]
4 µg/mL (≈ 6.69 µM)	0.5 µg/mL (≈ 0.837 µM)	1 µg/mL (≈ 1.67 µM)	0.25 µg/mL (≈ 0.418 µM)	2 µg/mL (≈ 3.35 µM)	0.5 µg/mL (≈ 0.837 µM)	8 µg/mL (≈ 13.4 µM)	0.25 µg/mL (≈ 0.418 µM)	0.25 µg/mL (≈ 0.418 µM)	0.25 µg/mL (≈ 0.418 µM)	CC(=O)NC[C@H]1CN(c2ccc(N3CCN(c4c(F)cc5c(=O)c(C(=O)O)cn6c5c4OCC6C)CC3)c(F)c2)C(=O)O1 (stereo partly drawn) [EXAMP. 7, 9-(4-{4-[5-(S)-(acetylamino-methyl)-2-oxo-oxazolidin-3-yl]-2-fluoro-phenyl}-piperazin-1-yl)-8-fluoro-3-methyl-6-oxo-2,3-dihydro-6H-1-oxa-3a-aza-phenalene-5-carboxylic Acid]
2 µg/mL (≈ 3.3 µM)	< 0.125 µg/mL	0.5 µg/mL (≈ 0.826 µM)	< 0.125 µg/mL	0.5 µg/mL (≈ 0.826 µM)	< 0.125 µg/mL	64 µg/mL (≈ 106 µM)	0.25 µg/mL (≈ 0.413 µM)	< 0.125 µg/mL	< 0.125 µg/mL	CC(=O)NC[C@H]1CN(c2ccc(N3CCN(c4c(F)cc5c(=O)c(C(=O)O)cn(CCF)c5c4F)CC3)c(F)c2)C(=O)O1 [EXAMP. 22, 7-(4-{4-[5-(S)-(acetylamino-methyl)-2-oxo-oxazolidin-3-yl]-2-fluoro-phenyl}-piperazin-1-yl)-6,8-difluoro-1-(2-fluoro-ethyl)-4-oxo-1,4-dihydro-quinoline-3-carboxylic Acid]
